Test results as given in patent US5438130A, “Fucosylated guanosine disulfates as excitatory amino acid antagonists” (priority 1993, dated 1995).
Like-named read-outs stand apart in the source and are kept apart here.

Legend:
kainate receptor [1] = conditions: printed for comparison; source not stated; read-out: IC50 (comparison, non-NMDA antagonists); cited from earlier work
[2] = system: quisqualate currents in fish horizontal cells; assay: Voltage clamp of quisqualate-elicited currents in fish retinal horizontal cells; type: cell-based; conditions: quisqualate 10μM
Experimental: (§1) Two sets of experiments were conducted to determine the concentration dependence of both kainate and quisqualate currents to HF7. Each experiment was conducted in a manner similar to that in which the FIG. 4 experiment was conducted. Inward currents were elicited by bath perfusion of either 25μM kainate or by 10μM quisqualate. Six doses of HF7 were utilized for each set of experiments. Each dose was tried on three different cells. Responses to HF7 were calculated as a percent of control kainate current. […] Each point in FIG. 5 is the mean of measurement from three different cells.

kainate receptors = assay: Voltage clamp of kainate-elicited currents in fish retinal horizontal cells; type: cell-based
Description: In this experiment, kainate currents were obtained from primary cultures of fish retinal horizontal cells using standard whole cell voltage clamp techniques [Hamill, O. P. et al. Pflugers Archives 391:85 (1981)]. For recordings cells were maintained in a physiological saline containing (in mM) NaCl, 145; KCl, 2.5; CaCl2, 2.5; MgSO4, 1.0; glucose, 10; HEPES, 10, pH 7.5). Cells were held near resting potential (Vh =-60 mV). Kainate current was elicited by superfusion of a solution of physiological saline solution containing 25μM kainate.
as §1

[3] = system: L-type calcium currents in N1E-115 murine neuroblastoma cells; assay: L-type calcium currents in N1E-115 neuroblastoma cells, whole cell voltage clamp; type: cell-based
Experimental: (§2) L-type calcium currents were obtained from cultured N1E-115 murine neuroblastoma cells using standard whole cell voltage clamp techniques [Hamill, O. P. et al. Pflugers Archives 391:85 (1981)]. For recording inward currents, external calcium was substituted with barium. Cells were maintained in a external recording solution containing TEA.Cl, 130 mM; BaCl2, 5 mM; glucose, 10 mM; HEPES, 10 mM; tetrodotoxin, 1μM; pH 7.4). The pipette solution contained CsCl, 115 mM; EGTA, 10 mM; HEPES, 10 mM; Mg.ATP, 4 mM.
The results from one experiment can be seen in FIG. 6. A depolarizing test pulse to +10 mV elicited an inward current of ~240 pA, which was reduced by 20% by pressure-ejection (6 psi) of 22μM HF7. The effects of HF7 blockade were partially reversible (60% recovery) subsequent to washout of HF7. The voltage protocol is shown in the inset. Cells were held at Vh =-50 mV. L-type currents were evoked following a depolarizing voltage step to +10 mV.
(§3) Two sets of experiments were conducted to determine the concentration dependence of both L- and T-type calcium currents to HF7. Each experiment was conducted in a manner similar to that in which the FIG. 6 experiment was performed. Inward L-type currents were elicited by depolarizing test pulses to +10 mV from a resting potential of -50 mV. Inward T-type currents were elicited by depolarizing test pulses to -25 mV from a resting potential of -90 mV. Six doses of HF7 were utilized for each set of experiments. Each dose was tried on three different cells. Responses to HF7 were calculated as percent inhibition of control current. Negative values represent current levels that were greater than control.

[4] = system: T-type calcium currents in N1E-115 murine neuroblastoma cells; assay: T-type calcium currents in N1E-115 neuroblastoma cells, whole cell voltage clamp; type: cell-based; conditions: -90 mV to -25 mV; especially between 0 and 90μM; FIG. 7
Experimental: as §2, §3

[5] = system: ionic currents elicited by glutamate in fish retinal neurons; assay: Voltage clamp of glutamate-elicited currents in fish retinal neurons; type: cell-based; conditions: glutamate 50μM
kainate receptor [6] = assay: Displacement of [3H]-kainate, rat forebrain crude synaptic membranes; conditions: 50 mM Tris-acetate; 1 hour at 4° C.; FIG. 3; read-out: IC50, displacement of [3H]-kainate binding
Experimental: The ability of HF7 to block the kainate receptor was tested using a [^3 H]-kainate binding assay. More specifically, a standard receptor binding assay [London, E. D. et al. Molecular Pharmacol. 15:492 (1979)] was performed to determine the extent to which HF7 could displace the binding of radioactive kainate ([^3 H]-kainate, 1.0 mCi/ml, NEN). The membrane source was frozen rat forebrain crude synaptic membranes treated with detergent (0.01% TRITON-X100). Radioligand binding was determined using 50 mM Tris-acetate buffer. Samples were incubated for 1 hour at 4° C. and then filtered over either Whatman GF/B or Schleicher & Schuell glass filters. Non-specific binding was determined using 10^-4 M glutamate. [^3 H]-kainate binding was linear from 50-400 μg protein/tube.

[7] = system: glutamate-induced current; assay: Whole cell recording of glutamate-induced current under voltage clamp (HPLC fraction assay); type: cell-based; conditions: HF7 peak, voltage clamp mode
Experimental: The components were eluted from the column stepwise with 0%, 2% and 4% acetonitrile in 0.1% TFA for the duration of 45 min., 15 min. and 40 min., respectively, at a flow rate of 2 ml/min. The elution was monitored by absorbance at 214 nm (FIG. 2) and 254 nm. According to the elution profile, fractions were collected manually and, after being dried down and dissolved in an appropriate buffer, were assayed in whole cell recording of glutamate-induced current under the voltage clamp mode (see "Functional Characterization" below for details). […] The other batch of HF7 was also purified with a slightly different program of acetonitrile stepwise elution (1% for 20 min., 2% for 20 min. and 4% for 40 min.), resulting in a shorter operation time without a significant change in the elution profile.

[8] = system: delayed neuronal degeneration following transient forebrain ischemia; conditions: cited from earlier work
[9] = in vivo; cited from earlier work
stroke = conditions: cited from earlier work
[10] = in vivo; cited from earlier work; remark: listed apart in the source

In the case of `N#Cc1cc2[nH]c(=O)c(=O)[nH]c2cc1[N+](=O)[O-]` [CNQX], the IC50 (kainate receptor [1]) is listed as roughly 2000 nM.

For `O=c1[nH]c2cc([N+](=O)[O-])c([N+](=O)[O-])cc2[nH]c1=O` [DNQX], the IC50 (kainate receptor [1]) is given as roughly 2000 nM.

For `CC(=O)OC1C(C)OC(O[C@@H]2[C@H](OS(=O)(=O)O)[C@@H](COS(=O)(=O)O)O[C@H]2n2cnc3c(=O)[nH]c(N)nc32)C(O)C1O` (stereo partly shown) [HF7], the “inhibition of ionic currents elicited by quisqualate” value [2] was “reversibly inhibited”, the IC50 ([2]; mean of three cells per dose, FIG. 5, read-out: IC50, quisqualate current) was roughly 60 µM and the “effect on kainate-elicited inward current” value (kainate receptors; approximately 180μM HF7, pressure-ejection, Vh = -60 mV, kainate 25μM) was “virtually eliminated”. The “inhibition of ionic currents elicited by kainate” value (kainate receptors; kainate 25μM) was “reversibly inhibited”, the IC50 (kainate receptors; kainate 25μM, mean of three cells per dose, FIG. 5, read-out: IC50, kainate current) was roughly 60 µM and the “reversibility of HF7 blockade of kainate current” value (kainate receptors; subsequent to washout) was “fully reversible”. The “inhibition of the kainate response” value (kainate receptors; ~200μM HF7, FIG. 4, kainate 25μM) was “near-complete inhibition”, the “reduction of L-type inward current” value ([3]; 22μM HF7, Vh = -50 mV, test pulse to +10 mV, FIG. 6) was 20% and the “recovery of L-type current after washout” value ([3]; subsequent to washout of 22μM HF7, partially reversible) was 60%. The “concentration dependence of L-type current inhibition” value ([3]; throughout the concentration range used, -50 mV to +10 mV, FIG. 7) was “inhibited in a concentration dependent manner”, the “effect on T-type current” value [4] was “much more variable” and the “inhibition of ionic currents elicited by glutamate” value [5] was “reversibly inhibited”. For the same compound, the IC50 (kainate receptor [6]) was roughly 20.7 µM and the “activity on glutamate-induced current” value [7] was “found to be active”.

For `NS(=O)(=O)c1cccc2c1c([N+](=O)[O-])cc1nc(O)c(O)nc12` [NBQX, 2,3-dihydroxy-6-nitro-7-sulfamoyl-benzo(F)quinoxaline], the “protection on delayed administration” value ([8]; administered several hours after the ischemic insult) is listed as “protection was observed”, the “prevention of delayed neuronal degeneration following transient forebrain ischemia” value ([8]; gerbils and rats, relatively large systemic doses) is listed as “dramatically effective” and the “crossing of the blood-brain barrier” value [9] is listed as “only in minute amounts”.

For `COCCOC(=O)C1=C(C)NC(C)=C(C(=O)OC(C)C)C1c1cccc([N+](=O)[O-])c1` (stereo not shown) [nimodipine], the “improvement in the outcome of stroke” value (stroke; clinical trials) is listed as “Modest improvement”, the cardiovascular side effects (stroke; in vivo) is listed as “significant cardiovascular side effects” and the “toxicity relative to NMDA antagonists” value [10] is listed as “less toxic than the NMDA antagonists”.
